Source: patent EP0906100B1, “USE OF 5-HT 1A? RECEPTOR ANTAGONISTS FOR THE TREATMENT OF URINARY INCONTINENCE” (RECORDATI S.A., priority 1996, dated 1997)

Experiments:
[1] = tested on: rhythmic bladder voiding contractions; assay: Volume-induced rhythmic bladder voiding contractions in anaesthetized rats; type: in vivo; details: for AMPLITUDE mm Hg before treatment / FREQUENCY No. contr./15 min before treatment: baseline; for AMPLITUDE mm Hg before treatment / AMPLITUDE mm Hg after treatment: animals with frequency reduction <50%; for AMPLITUDE mm Hg before treatment / FREQUENCY No. contr./15 min before treatment / AMPLITUDE mm Hg after treatment / FREQUENCY No. contr./15 min after treatment: mean±S.E.; for BLADDER CONTRACTIONS Disappearance time: duration of bladder quiescence, mean (S.E. in next cell)
Experimental: Female Sprague Dawley rats weighing 225-275 g (Crl: CD° BR, Charles River Italia) were used. The animals were housed with free access to food and water and were maintained on a forced 12 h alternating light-dark cycle at 22-24°C for at least one week, except during the experiment. The activity on the rhythmic bladder voiding contractions was evaluated according to the method of Dray (J. Pharmcol. Methods, 13:157, 1985), with some modifications as in Guarneri (Phannacol. Res., 27:173, 1993). […] The catheter was tied in place with a ligature around the external urethral orifice and was connected with conventional pressure transducers (Statham P23 ID/P23 XL). […] The bladder was then filled via the recording catheter by incremental volumes of warm (37°C) saline until reflex bladder voiding contractions occurred (usually 0.8-1.5 ml). Two parameters were recorded from the cystometrogram: the frequency of voiding contractions, calculated by counting the number of peaks/15 min of observation, and the mean amplitude of these contractions (mean height of the peaks in mmHg) in the same time period. For intravenous (i. v. ) injection of bioactive compounds, a PE 50 polyethylene tubing filled with physiological saline was inserted into the jugular vein.
Bioactivity was assessed in individual animals (using 6-10 rats per dose), by recording the number and height of the peaks for 15 min after drug injection and comparing them with those previously recorded for 15 min after the intravenous administration of vehicle alone. […] The statistical significance of changes in frequency and amplitude before and after treatment was assessed by Student's t test for paired data. Changes showing a probability P<0.01 were considered significant.
An all-or-none criterion was also used to compare bioactivity in terms of ED50 values. Rats showing a treatment-related change of ≥30% relative to the basal value were considered to be positive. Quantal dose-response curves and ED50 values were evaluated by the method of Bliss (J. Pharm. Pharmacol., 11:192, 1938).
The rapid distension of the urinary bladder in urethane-anaesthetized rats produced a series of rhythmic bladder voiding contractions whose characteristics have been described (Maggie et al., Brain Res., 380, 83, 1986; Maggi, et al., J. Pharmacol. Exp. Ther., 230, 500, 1984). The frequency of these contractions is related to the sensory afferent arm of reflex micturition and to the integrity of the micturition centre, while their amplitude is a property of the efferent arm of the reflex (Maggi et al., J. Pharmacol. Meth., 15, 157, 1986; Maggi et al., Brain Res.. 415, 1, 1987; Maggi et al., Naun. Schmied. Arch. Pharmacol., 332, 276, 1986; Maggi et al., J. Urol., 136, 696, 1986).

[2] = tested on: cystometric parameters (bladder volume capacity, micturition pressure); assay: Cystometric parameters (BVC, MP) in the conscious rat; type: in vivo, rats; details: for BVC before treatment / MP before treatment: baseline; for BVC before treatment / MP before treatment / BVC after treatment / MP after treatment: mean±S.E.; for BVC % change / MP % change / BVC after treatment / MP after treatment: 15 min after injection
Experimental: Male Sprague Dawley rats (Crl: CD° BR) weighing 250-350 g were used. The animals were housed with free access to food and water and maintained on a forced 12 h alternating light-dark cycle at 22-24°C for at least one week, except during performance of the experiment.
An approximately 10 mm long midline incision was made in the shaved and cleaned abdominal wall. The urinary bladder was gently freed from adhering tissues, emptied, and then cannulated, via an incision at the dome, with a polyethylene cannula (Portex PP30), which was permanently sutured with silk thread. The cannula was exteriorized through a subcutaneous tunnel in the retroscapular area, where it was connected with a plastic adapter to avoid the risk of removal by the animal. For intravenous (i.v.) injection of test compounds, a PE 50 polyethylene tubing filled with physiological saline was inserted into the jugular vein and exteriorized in the retroscapular area.
Since cystometrographic parameters have been reported to be influenced by the time elapsed after catheter implantation […].
On the day of the experiment, the rats were placed in Bollman's cages; after a stabilization period of 20 min, the free tip of the bladder catheter was connected through a T-shaped tube to a pressure transducer (Bentley T 800/Marb P 82) and to a peristaltic pump (Gilson minipuls 2) for a continuous infusion, at the constant rate of 0.1 ml/min, of saline solution into the urinary bladder. The intraluminal pressure signal during infusion was continuously recorded on a polygraph (Battaglia Rangoni KO 380 with ADC1/T amplifier). Two urodynamic parameters were evaluated: bladder volume capacity (BVC) and micturition pressure (MP). BVC (in ml) is defined as the minimum volume infused after which detrusor contraction (followed by micturition) occurs. MP (in mmHg) is defined as the maximal intravesical pressure induced by the contraction of detrusor during micturition. Basal BVC and MP values were calculated as the means of the first two recorded cystometrograms. At this point, the infusion was interrupted and the test compounds were administered. Fifteen minutes after intravenous administration, or one hour after oral drug administration, two additional cystometrograms were recorded in each animal and the mean values of the two cystometrographic parameters were calculated.
The statistical significance of the differences in urodynamic parameter values was evaluated by Student's t test for paired data. Only changes showing a probability P<0.01 were considered to be significant.

`Cc1c(-c2ccccc2)oc2c(C(=O)OCCN3CCCCC3)cccc2c1=O` [Flavoxate, flavoxate] was tested, and the “AMPLITUDE mm Hg before treatment” value ([1]; 300 µg/kg i.v. group) was 25.9±1.3 mm Hg, the “FREQUENCY No. contr./15 min before treatment” value ([1]; 300 µg/kg i.v. group) was 9.2±1.2 No. contr./15 min and the “AMPLITUDE mm Hg after treatment” value ([1]; 300 µg/kg i.v.) was 24.1±1.8 mm Hg. The “BLADDER CONTRACTIONS Disappearance time” value ([1]; 300 µg/kg i.v.) was 1.70 min, the “FREQUENCY No. contr./15 min after treatment” value ([1]; 300 µg/kg i.v.) was 8.8±1.7 No. contr./15 min and the “AMPLITUDE mm Hg before treatment” value ([1]; 1000 µg/kg i.v. group) was 26.1±2.3 mm Hg. For the same compound, the “FREQUENCY No. contr./15 min before treatment” value ([1]; 1000 µg/kg i.v. group) was 10.1±0.7 No. contr./15 min, the “AMPLITUDE mm Hg after treatment” value ([1]; 1000 µg/kg i.v.) was 25.0±2.2 mm Hg and the “BLADDER CONTRACTIONS Disappearance time” value ([1]; 1000 µg/kg i.v.) was 3.04 min. For the same compound, the “FREQUENCY No. contr./15 min after treatment” value ([1]; 1000 µg/kg i.v.) was 8.6±0.9 No. contr./15 min, the “AMPLITUDE mm Hg before treatment” value ([1]; 3000 µg/kg i.v. group) was 18.9±0.9 mm Hg and the “FREQUENCY No. contr./15 min before treatment” value ([1]; 3000 µg/kg i.v. group) was 10.7±0.7 No. contr./15 min. For the same compound, the “AMPLITUDE mm Hg after treatment” value ([1]; 3000 µg/kg i.v.) was 16.6±1.2 mm Hg, the “BLADDER CONTRACTIONS Disappearance time” value ([1]; 3000 µg/kg i.v.) was 5.30 min and the “FREQUENCY No. contr./15 min after treatment” value ([1]; 3000 µg/kg i.v.) was 6.5±0.7 No. contr./15 min. The “AMPLITUDE mm Hg before treatment” value ([1]; 10000 µg/kg i.v. group) was 19.9±1.6 mm Hg, the “FREQUENCY No. contr./15 min before treatment” value ([1]; 10000 µg/kg i.v. group) was 11.3±0.8 No. contr./15 min and the “AMPLITUDE mm Hg after treatment” value ([1]; 10000 µg/kg i.v.) was 19.2±1.5 mm Hg. The “BLADDER CONTRACTIONS Disappearance time” value ([1]; 10000 µg/kg i.v.) was 8.25 min, the “BLADDER CONTRACTIONS Disappearance time” value ([1]; 10000 µg/kg i.v., listed as flavoxate) was 8.25 ± 1.90 min and the “FREQUENCY No. contr./15 min after treatment” value ([1]; 10000 µg/kg i.v.) was 5.5±0.6 No. contr./15 min. It also gave an ED (10 min disappearance of contractions) ([1]; Rattus norvegicus, iv, 10 min, extrapolated dose inducing 10 min of disappearance of the contractions, linear regression) greater than 10 mg/kg, an ED50 ([1]; Rattus norvegicus, iv, read-out: ED50 FREQUENCY (and 95% confidence limits), i.v., quantal criterion (change ≥30% relative to basal value)) of 2.65 mg/kg and a BVC before treatment ([2]; 300 µg/kg i.v. group) of 0.76 ± 0.11 mL. The MP before treatment ([2]; 300 µg/kg i.v. group) was 89.2±10.7 mmHg, the BVC % change ([2]; 300 µg/kg i.v.) was “+14%” and the MP % change ([2]; 300 µg/kg i.v.) was “+7%”. For the same compound, the BVC after treatment ([2]; 300 µg/kg i.v.) was 0.87 ± 0.11 mL, the MP after treatment ([2]; 300 µg/kg i.v.) was 95.0±10.9 mmHg and the BVC before treatment ([2]; 1000 µg/kg i.v. group) was 0.88 ± 0.15 mL. The MP before treatment ([2]; 1000 µg/kg i.v. group) was 90.4±10.7 mmHg, the BVC % change ([2]; 1000 µg/kg i.v.) was “+26%” and the MP % change ([2]; 1000 µg/kg i.v.) was -12%. It also gave a BVC after treatment ([2]; 1000 µg/kg i.v.) of 1.11 ± 0.16 mL, an MP after treatment ([2]; 1000 µg/kg i.v.) of 80.1±11.1 mmHg and a BVC before treatment ([2]; 3000 µg/kg i.v. group) of 0.77 ± 0.08 mL. The MP before treatment ([2]; 3000 µg/kg i.v. group) was 72.6±9.3 mmHg, the BVC % change ([2]; 3000 µg/kg i.v.) was “+39%” and the MP % change ([2]; 3000 µg/kg i.v.) was “+4%”. The BVC after treatment ([2]; 3000 µg/kg i.v.) was 1.07 ± 0.12 mL, the MP after treatment ([2]; 3000 µg/kg i.v.) was 75.2±9.5 mmHg and the “effect on MP (in words)” value ([2]; conscious rats, i.v., NAN-190 up to the highest administrable dose of 300 µg/kg) was “inactive”.
